According to ChEMBL document CHEMBL3414456, “Pentacyclic triterpene derivatives possessing polyhydroxyl ring A inhibit gram-positive bacteria growth by regulating metabolism and virulence genes expression” (2015):
Values after ≈ are worked out from the molar mass of the structure shown. Active and inactive are the calls of the source. No cut-off for these calls is given here.

Columns and labels:
Microsporum canis = assay: Antifungal activity against Microsporum canis by serial microplate method; format: functional
[1] = test system: Meyerozyma guilliermondii; assay: Antifungal activity against Candida guilliermondii by serial microplate method; format: functional
Staphylococcus aureus [2] = assay: Antibacterial activity against […] Staphylococcus aureus ATCC 29213 by serial microplate method; format: functional
Streptomyces scabiei [3] = assay: Antibacterial activity against Streptomyces scabiei CGMCC4.7610246 assessed as growth inhibition at 100 uM after 36 hrs by turbidimetric analysis; format: functional, organism-based
Staphylococcus aureus [4] = assay: Antibacterial activity against Staphylococcus aureus ATCC 25923 assessed as growth inhibition at 100 uM after 24 hrs by turbidimetric analysis; format: functional; details: for inhibition of growth at 100 µM: ATCC 25923, 24 h, read-out: GI
Bacillus spizizenii [5] = assay: Antibacterial activity against Bacillus subtilis ATCC 6633 assessed as growth inhibition after 2 to 24 hrs; format: functional, organism-based
Bacillus spizizenii [6] = assay: Antibacterial activity against Bacillus subtilis ATCC 6633 assessed as growth inhibition at 100 uM after 24 hrs by turbidimetric analysis; format: functional; details: for inhibition of growth at 100 µM: ATCC 6633, 24 h, read-out: GI
Staphylococcus aureus [7] = assay: Upregulation of fmhB gene expression in Staphylococcus aureus ATCC 25923 at 0.5 x MIC by Q-RT-PCR analysis relative to control; format: functional, organism-based
Staphylococcus aureus [8] = assay: Upregulation of seaR gene expression in Staphylococcus aureus ATCC 25923 at 0.5 x MIC by Q-RT-PCR analysis relative to control; format: functional, organism-based
Staphylococcus aureus [9] = assay: Antibacterial activity against Staphylococcus aureus ATCC 25923 assessed as growth inhibition after 24 hrs by turbidimetric analysis; format: functional; details: ATCC 25923, 24 h
Bacillus spizizenii [10] = assay: Antibacterial activity against Bacillus subtilis ATCC 6633 assessed as growth inhibition after 24 hrs by turbidimetric analysis; format: functional; details: ATCC 6633, 24 h
Staphylococcus aureus [11] = assay: Potency index, ratio of ampicillin MIC to compound MIC for Staphylococcus aureus ATCC 25923; format: functional
Streptomyces scabiei [12] = assay: Antibacterial activity against Streptomyces scabiei CGMCC4.7610246 assessed as growth inhibition after 36 hrs by turbidimetric analysis; format: functional; details: CGMCC4.7610246, 36 h
Staphylococcus aureus [13] = assay: Upregulation of hla gene expression in Staphylococcus aureus ATCC 25923 at 0.5 x MIC by Q-RT-PCR analysis relative to control; format: functional, organism-based
Staphylococcus aureus [14] = assay: Downregulation of narG gene expression in Staphylococcus aureus ATCC 25923 at 0.5 x MIC by Q-RT-PCR analysis relative to control; format: functional, organism-based
Staphylococcus aureus [15] = assay: Downregulation of lytM gene expression in Staphylococcus aureus ATCC 25923 at 0.5 x MIC by Q-RT-PCR analysis relative to control; format: functional, organism-based
Staphylococcus aureus [16] = assay: Antibacterial activity against Staphylococcus aureus ATCC 25923 assessed as growth inhibition after 2 to 24 hrs; format: functional, organism-based
Staphylococcus aureus [17] = assay: Antibacterial activity against Staphylococcus aureus after 24 hrs; format: functional
Streptomyces scabiei [18] = assay: Downregulation of txtC gene expression in Streptomyces scabiei CGMCC4.7610246 at 0.5 x MIC by Q-RT-PCR analysis relative to control; format: functional, organism-based
Streptomyces scabiei [19] = assay: Downregulation of txtA gene expression in Streptomyces scabiei CGMCC4.7610246 at 0.5 x MIC by Q-RT-PCR analysis relative to control; format: functional, organism-based
Streptomyces scabiei [20] = assay: Downregulation of necl gene expression in Streptomyces scabiei CGMCC4.7610246 at 0.5 x MIC by Q-RT-PCR analysis relative to control; format: functional, organism-based
Streptomyces scabiei [21] = assay: Downregulation of tomA gene expression in Streptomyces scabiei CGMCC4.7610246 at 0.5 x MIC by Q-RT-PCR analysis relative to control; format: functional, organism-based
Streptomyces scabiei [22] = assay: Downregulation of murX gene expression in Streptomyces scabiei CGMCC4.7610246 at 0.5 x MIC by Q-RT-PCR analysis relative to control; format: functional, organism-based
Streptomyces scabiei [23] = assay: Downregulation of p450 gene expression in Streptomyces scabiei CGMCC4.7610246 at 0.5 x MIC by Q-RT-PCR analysis relative to control; format: functional, organism-based
Streptomyces scabiei [24] = assay: Antibacterial activity against Streptomyces scabiei CGMCC4.7610246 assessed as killing time at 0.5 x MIC to 4 x MIC; format: functional
Streptomyces scabiei [25] = assay: Antibacterial activity against Streptomyces scabiei CGMCC4.7610246 assessed as growth inhibition after 4 to 36 hrs; format: functional, organism-based
Staphylococcus aureus [26] = assay: Antibacterial activity against Staphylococcus aureus; format: functional
Bacillus subtilis = assay: Antibacterial activity against Bacillus subtilis; format: functional
Bacillus spizizenii [27] = assay: Downregulation of lytF gene expression in Bacillus subtilis ATCC 6633 at 0.5 x MIC by Q-RT-PCR analysis relative to control; format: functional, organism-based
Bacillus spizizenii [28] = assay: Downregulation of yqhB gene expression in Bacillus subtilis ATCC 6633 at 0.5 x MIC by Q-RT-PCR analysis relative to control; format: functional, organism-based
Bacillus spizizenii [29] = assay: Downregulation of mmgD gene expression in Bacillus subtilis ATCC 6633 at 0.5 x MIC by Q-RT-PCR analysis relative to control; format: functional, organism-based
Bacillus spizizenii [30] = assay: Downregulation of yhdT gene expression in Bacillus subtilis ATCC 6633 at 0.5 x MIC by Q-RT-PCR analysis relative to control; format: functional, organism-based
Bacillus spizizenii [31] = assay: Upregulation of ykuD gene expression in Bacillus subtilis ATCC 6633 at 0.5 x MIC by Q-RT-PCR analysis relative to control; format: functional
Escherichia coli = assay: Antibacterial activity against Escherichia coli ATCC 25922 by serial microplate method; format: functional

Compound: C[C@H]1[C@H](C)CC[C@]2(C(=O)O)CC[C@]3(C)C(=CC[C@@H]4[C@@]5(C)C[C@@H](O)[C@H](O)C(C)(C)[C@@H]5CC[C@]43C)[C@H]12 [COROSOLIC ACID]
- MIC (Microsporum canis): 8 µg/mL (≈ 16.9 µM)
- MIC [1]: 11.7 µg/mL (≈ 24.8 µM)
- MIC (Staphylococcus aureus [2]): 7 µg/mL (≈ 14.8 µM)

Compound: CC1(C)CC[C@]2(C(=O)O)CC[C@]3(C)C(=CC[C@@H]4[C@@]5(C)[C@H]6O[C@H]6[C@H](O)C(C)(C)[C@@H]5CC[C@]43C)[C@@H]2C1
- growth inhibition (GI) (Streptomyces scabiei [3]): Active
- growth inhibition (GI) (Staphylococcus aureus [4]): Active
- growth inhibition (GI) (Bacillus spizizenii [5]): Dose-dependent effect
- growth inhibition (GI) (Bacillus spizizenii [6]): Active

Compound: CCOC(=O)[C@]12CC[C@@H](C)[C@H](C)[C@H]1C1=CC[C@@H]3[C@@]4(C)[C@@H](O)[C@H](O)[C@H](O)C(C)(C)[C@@H]4CC[C@@]3(C)[C@]1(C)CC2
- Activity (Staphylococcus aureus [7]): Active
- Activity (Staphylococcus aureus [8]): Active
- MIC (Staphylococcus aureus [9]): 2 µM (≈ 1.03 µg/mL)
- MIC (Bacillus spizizenii [10]): 64 µM (≈ 33.1 µg/mL)
- inhibition of growth at 100 µM (Staphylococcus aureus [4]): > 95%
- Ratio (Staphylococcus aureus [11]): 2
- MIC (Streptomyces scabiei [12]): ≥ 100 µM
- Activity (Staphylococcus aureus [13]): Active
- inhibition of growth at 100 µM (Bacillus spizizenii [6]): > 95%
- Activity (Staphylococcus aureus [14]): Active
- Activity (Staphylococcus aureus [15]): Active

Compound: CCOC(=O)[C@]12CCC(C)(C)C[C@H]1C1=CC[C@@H]3[C@@]4(C)[C@@H](O)[C@H](O)[C@H](O)C(C)(C)[C@@H]4CC[C@@]3(C)[C@]1(C)CC2
- Activity (Staphylococcus aureus [7]): Active
- Activity (Staphylococcus aureus [8]): Active
- MIC (Staphylococcus aureus [9]): 1 µM (≈ 0.517 µg/mL)
- MIC (Bacillus spizizenii [10]): 64 µM (≈ 33.1 µg/mL)
- inhibition of growth at 100 µM (Staphylococcus aureus [4]): > 95%
- growth inhibition (GI) (Staphylococcus aureus [16]): Dose-dependent effect
- Ratio (Staphylococcus aureus [11]): 2
- MIC (Streptomyces scabiei [12]): ≥ 100 µM
- Activity (Staphylococcus aureus [13]): Active
- inhibition of growth at 100 µM (Bacillus spizizenii [6]): > 95%
- Activity (Staphylococcus aureus [15]): Active

Compound: C[C@H]1[C@H](C)C=C[C@]2(C(=O)O)CC[C@]3(C)C(=CC[C@H]4[C@]5(C)[C@H]([C@H](O)C[C@]43C)C(C)(C)[C@@H](O)[C@H](O)[C@@H]5O)[C@H]12
- inhibition zone (IZ) (Staphylococcus aureus [17]): 24 mm

Compound: CC1(C)CC[C@]2(C(=O)O)CC[C@]3(C)C(=CC[C@@H]4[C@@]5(C)CC[C@H](O)C(C)(C)[C@@H]5CC[C@]43C)[C@@H]2C1
- Activity (Staphylococcus aureus [7]): Active
- Activity (Staphylococcus aureus [8]): Active
- Activity (Streptomyces scabiei [18]): Active
- growth inhibition (GI) (Streptomyces scabiei [3]): Active
- Activity (Streptomyces scabiei [19]): Active
- growth inhibition (GI) (Staphylococcus aureus [4]): Active
- Activity (Staphylococcus aureus [13]): Active
- Activity (Streptomyces scabiei [20]): Active
- Activity (Streptomyces scabiei [21]): Active
- growth inhibition (GI) (Bacillus spizizenii [6]): Active
- Activity (Streptomyces scabiei [22]): Active
- Activity (Streptomyces scabiei [23]): inactive

Compound: COC(=O)[C@]12CCC(C)(C)C[C@H]1C1=CC[C@@H]3[C@@]4(C)[C@@H](O)[C@H](O)[C@H](O)C(C)(C)[C@@H]4CC[C@@]3(C)[C@]1(C)CC2
- Activity (Streptomyces scabiei [18]): Active
- MIC (Staphylococcus aureus [9]): ≥ 100 µM
- MIC (Bacillus spizizenii [10]): 64 µM (≈ 32.2 µg/mL)
- Time (Streptomyces scabiei [24]): >24 h
- Activity (Streptomyces scabiei [19]): Active
- inhibition of growth at 100 µM (Staphylococcus aureus [4]): > 95%
- MIC (Streptomyces scabiei [12]): 4 µM (≈ 2.01 µg/mL)
- Activity (Streptomyces scabiei [20]): Active
- Activity (Streptomyces scabiei [21]): Active
- inhibition of growth at 100 µM (Bacillus spizizenii [6]): > 95%
- Activity (Streptomyces scabiei [22]): Active
- growth inhibition (GI) (Streptomyces scabiei [25]): Dose-dependent effect
- Activity (Streptomyces scabiei [23]): Active

Compound: CC1OC(OC[C@]2(C)[C@@H](O)[C@@H](O)[C@@H](O)[C@]3(C)[C@H]4CC=C5[C@@H]6[C@@H](C)[C@H](C)CC[C@]6(C)CC[C@@]5(C)[C@]4(C)CC[C@@H]23)C(O)C(O)C1O (some centres undefined)
- MIC (Staphylococcus aureus [26]): 31.3 µg/mL (≈ 50.4 µM)
- MIC (Bacillus subtilis): 15.6 µg/mL (≈ 25.1 µM)

Compound: C[C@H]1[C@H](C)CC[C@]2(C(=O)O)CC[C@]3(C)C(=CC[C@@H]4[C@@]5(C)CC[C@H](O)C(C)(C)[C@@H]5CC[C@]43C)[C@H]12
- Activity (Staphylococcus aureus [7]): Active
- Activity (Staphylococcus aureus [8]): Active
- growth inhibition (GI) (Streptomyces scabiei [3]): Active
- growth inhibition (GI) (Staphylococcus aureus [4]): Active
- Activity (Bacillus spizizenii [27]): Active
- Activity (Staphylococcus aureus [13]): Active
- Activity (Bacillus spizizenii [28]): Active
- Activity (Bacillus spizizenii [29]): Active
- Activity (Bacillus spizizenii [30]): Active
- growth inhibition (GI) (Bacillus spizizenii [6]): Active
- Activity (Bacillus spizizenii [31]): Active

Compound: C[C@@H](O)[C@H]1C(=O)N2C(C(=O)O)=C(SCCNC=N)C[C@H]12 [IMIPENEM ANHYDROUS]
- inhibition zone (IZ) (Staphylococcus aureus [17]): 33 mm

Compound: CC1(C)[C@@H](O)C[C@H](O)[C@]2(C)[C@H]3CC=C4[C@@H]5C[C@](C)(C(=O)O)CC[C@]5(C(=O)O)CC[C@@]4(C)[C@]3(C)CC[C@@H]12
- MIC (Escherichia coli): 16 µg/mL (≈ 31.8 µM)
- MIC (Staphylococcus aureus [2]): 125 µg/mL (≈ 249 µM)

Compound: CC(C)OC(=O)[C@]12CC[C@@H](C)[C@H](C)[C@H]1C1=CC[C@@H]3[C@@]4(C)[C@@H](O)[C@H](O)[C@H](O)C(C)(C)[C@@H]4CC[C@@]3(C)[C@]1(C)CC2
- Activity (Staphylococcus aureus [7]): Active
- Activity (Staphylococcus aureus [8]): Active
- MIC (Staphylococcus aureus [9]): 1 µM (≈ 0.531 µg/mL)
- MIC (Bacillus spizizenii [10]): 4 µM (≈ 2.12 µg/mL)
- inhibition of growth at 100 µM (Staphylococcus aureus [4]): > 95%
- growth inhibition (GI) (Staphylococcus aureus [16]): Dose-dependent effect
- Ratio (Staphylococcus aureus [11]): 4
- MIC (Streptomyces scabiei [12]): ≥ 100 µM
- Activity (Bacillus spizizenii [27]): Active
- Activity (Staphylococcus aureus [13]): Active
- Activity (Bacillus spizizenii [28]): inactive
- Activity (Bacillus spizizenii [29]): Active
- Activity (Bacillus spizizenii [30]): Active
- inhibition of growth at 100 µM (Bacillus spizizenii [6]): > 95%
- Activity (Staphylococcus aureus [14]): Active
- fold change (FC) (Bacillus spizizenii [31]): 2.5

Compound: C[C@@]1(C(=O)O)CC[C@]2(C(=O)O)CC[C@]3(C)C(=CC[C@@H]4[C@@]5(C)[C@@H](O)C[C@H](O)[C@](C)(CO)[C@@H]5CC[C@]43C)[C@@H]2C1
- MIC (Escherichia coli): 16 µg/mL (≈ 30.8 µM)
- MIC (Staphylococcus aureus [2]): 63 µg/mL (≈ 121 µM)
